Experiment [1] concerns the target BRD4 (His-Brd4(44-477)) (Homo sapiens (Human), UniProt O60885). Put plainly: TR-FRET in-vitro binding assay for BRD4. As to conditions: single determination or n ≧ 2 independent determinations, read-out: Biochemical IC50 BRD4. The procedure: (§1) TR-FRET In-Vitro Binding Assays for BRD2, BRD3, and BRD4:
(§2) All assays were performed in 384 well microtiter plates. Each assay plate contained 8-point serial dilutions for 40 test compounds, plus 16 high- and 16 low controls. Liquid handling and incubation steps were done on an Innovadyne Nanodrop Express equipped with a robotic arm (Thermo CatX, Perkin Elmer/Caliper Twister II) and an incubator (Liconic STX40, Thermo Cytomat 2C450). The assay plates were prepared by addition of 50 nl per well of compound solution in 90% DMSO HummingBird nanodispenser (Zinsser Analytic). […] Reactions were incubated at 30° C. for 35 minutes. […] After 35 minutes incubation at 30° C., plates were measured in a Perkin Elmer EnVision multilabel reader.
(§3) Preparation of Compound Dilutions
(§4) Test compounds were dissolved in DMSO (10 mM) and transferred into 1.4 mL flat bottom or V-shaped Matrix tubes carrying a unique 2D matrix. The stock solutions were stored at […] if not used immediately. For the test procedure the vials were defrosted and identified by a scanner whereby a working sheet was generated that guided the subsequent working steps.
(§5) Compound dilutions were made in 96 well plates. This format enabled the assay of maximally 40 individual test compounds at 8 concentrations (single points) including 4 reference compounds, if desired (known BET inhibitors from the prior art, for this and other assays of the type disclosed herein). The dilution protocol included the production of “pre-dilution plates”, “master plates” and “assay plates”.
(§6) Pre-Dilution Plates: 96 polypropylene well plates were used as pre-dilution plates. A total of 4 pre-dilution plates were prepared including 10 test compounds each on the plate positions A1-A10, one standard compound at A11 and one DMSO control at A12. All dilution steps were done on a HamiltonSTAR robot.
(§7) These plates were used directly for the assay which was performed in a total volume of 13.55 μL.

The target in experiment [2] is BRD3 (His-Brd3(20-477)) (Homo sapiens (Human), UniProt Q15059). Put plainly: TR-FRET in-vitro binding assay for BRD3. As to conditions: single determination or n ≧ 2 independent determinations, read-out: Biochemical IC50 BRD3. As to the method:
as §1, §2, §3, §4, §5, §6, §7
(In TR-FRET formats the signal depends on donor and acceptor labels being close together.)

The target in experiment [3] is CREBBP bromodomain (His-CREBBP(1081-1197)) (Homo sapiens (Human), UniProt Q92793). Put plainly: AlphaScreen in-vitro binding assay for CREBBP. The following applies: single determination or n ≧ 2 independent determinations, read-out: Biochemical IC50 CREBBP. The procedure:
AlphaScreen In-Vitro Binding Assay for CREBBP
In order to assess bromodomain selectivity, we set up a binding assay using the bromodomain encoded by the CREBBP gene. […] Reactions were incubated at 30° C. for 35 minutes. Subsequently 4.5 μl per well detection mix (50 mM HEPES, pH 7.5, 0.005% Tween20, 0.02% BSA, 150 mM NaCl, 45 μg/ml Ni-chelate acceptor beads, 45 μg/mIstreptavidin-donor beads) (Perkin Elmer)) were added. After 60 minutes incubation at room temperature, plates were measured in a Perkin Elmer EnVision multilabel reader. IC50 values were determined from percent inhibition values at different compound concentrations by non-linear regression analysis.
as §3, §4, §5, §6, §7
In general terms: Alpha assays give light when donor and acceptor beads are brought close together.

In experiment [4] the test system is THP-1 cells. Put plainly: Cell growth inhibition assay (CellTiter-Glo), THP-1.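 For all read-outs here: viability read as cellular ATP luminescence after 4 days, 3-fold dilution series from 10 µM, DMSO vehicle-treated cells taken as 100%, cell-free medium wells as −100%.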 As to conditions: for GI50: Homo sapiens, THP-1, read-out: THP-1 GI50; for THP-1 TGI: THP-1 cells, total growth inhibition, CellTiter-Glo. For orientation: ATP-based viability assays read luminescence as a measure of living cells.
Experiment [5] deals with K-562 cells. Put plainly: Cell growth inhibition assay (CellTiter-Glo), K-562.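 For all read-outs here: cellular ATP measured by luminescence after 4 days of exposure, 3-fold dilution series from 10 µM, DMSO vehicle-treated cells define 100%, cell-free medium wells −100%.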 The following applies: for GI50: Homo sapiens, K562, read-out: K-562 GI50; for K-562 TGI: K-562 cells, total growth inhibition, CellTiter-Glo.
The test system of experiment [6] is MV-4-11 cells. Put plainly: Cell growth inhibition assay (CellTiter-Glo), MV-4-11.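 For all read-outs here: cellular ATP luminescence after 4 days, 3-fold dilution series from 10 µM top dose, vehicle (0.1% DMSO) set to 100%, cell-free medium set to −100%, day 0 corrected.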 The following applies: for GI50: Homo sapiens, MV4-11, read-out: MV-4-11 GI50; for MV-4-11 TGI: MV-4-11 cells, total growth inhibition, CellTiter-Glo.

Molecules are shown by their SMILES.

BRD3 (His-Brd3(20-477)), sequence (Q15059 20-477): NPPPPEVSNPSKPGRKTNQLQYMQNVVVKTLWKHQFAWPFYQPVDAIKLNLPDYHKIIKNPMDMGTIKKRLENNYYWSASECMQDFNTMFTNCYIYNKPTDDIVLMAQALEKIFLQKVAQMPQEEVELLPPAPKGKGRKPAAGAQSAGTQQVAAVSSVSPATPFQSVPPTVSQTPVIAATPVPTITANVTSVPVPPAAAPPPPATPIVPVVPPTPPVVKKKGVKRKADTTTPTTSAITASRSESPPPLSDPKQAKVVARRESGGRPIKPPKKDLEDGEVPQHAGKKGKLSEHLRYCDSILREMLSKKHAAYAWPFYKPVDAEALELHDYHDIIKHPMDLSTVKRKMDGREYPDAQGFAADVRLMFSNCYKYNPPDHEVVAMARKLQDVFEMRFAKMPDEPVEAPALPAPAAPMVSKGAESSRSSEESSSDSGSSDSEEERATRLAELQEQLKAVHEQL
CREBBP bromodomain (His-CREBBP(1081-1197)), sequence (Q92793 1081-1197): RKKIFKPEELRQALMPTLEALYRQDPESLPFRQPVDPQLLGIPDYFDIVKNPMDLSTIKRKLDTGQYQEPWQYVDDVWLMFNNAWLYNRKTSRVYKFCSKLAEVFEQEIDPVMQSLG

In the case of `Cc1cc(N2C(=O)c3nc(C4=CCOCC4)[nH]c3C2c2ccc(Cl)cc2)cn2c(C)nnc12` (stereo not drawn) [Example 116, 6-(4-chlorophenyl)-2-(3,6-dihydro-2H-pyran-4-yl)-5-(3,8-dimethyl-[1,2,4]triazolo[4,3-a]pyridin-6-yl)-5,6-dihydropyrrolo[3,4-d]imidazol-4(1H)-one], the IC50 in experiment [1] turned out to be 0.041 µM; in experiment [2] it was 0.058 µM; in experiment [3] it was 2.25 µM. Moreover, the GI50 stood at 0.0911 µM in experiment [4], 0.33 µM in experiment [5] and 0.0714 µM in experiment [6]. Further, the “THP-1 TGI” value in experiment [4] stood at 0.166 µM. Further, in experiment [5], the “K-562 TGI” value is >10 µM. For the same compound, the “MV-4-11 TGI” value in experiment [6] was 0.1175 µM.

Regarding `COc1cc(C(F)(F)F)ccc1-c1nc2c([nH]1)C(c1ccc(Cl)cc1)N(c1cc(C)c3nnc(C)n3c1)C2=O` (stereo not drawn) [Example 136, 6-(4-chlorophenyl)-5-(3,8-dimethyl-[1,2,4]triazolo[4,3-a]pyridin-6-yl)-2-(2-methoxy-4-(trifluoromethyl)phenyl)-5,6-dihydropyrrolo[3,4-d]imidazol-4(1H)-one], the IC50 in experiment [1] was 0.03 µM; in experiment [2] it was 0.032 µM; in experiment [3], 2.6 µM. The results for the GI50 in experiment [4], in experiment [5] and in experiment [6] were 0.0794 µM, 0.227 µM and 0.0766 µM, respectively. Also, the “THP-1 TGI” value in experiment [4] came to 0.1795 µM. For the same compound, in experiment [5], the “K-562 TGI” value is >10 µM. In addition, the “MV-4-11 TGI” value in experiment [6] amounted to 0.114 µM.

Regarding `Cc1cc(N2C(=O)c3nc(C4=CCOCC4)[nH]c3[C@H]2c2ccc(Cl)cc2)cn(C)c1=O` [Example 152, (R)-6-(4-chlorophenyl)-2-(3,6-dihydro-2H-pyran-4-yl)-5-(1,5-dimethyl-6-oxo-1,6-dihydropyridin-3-yl)-5,6-dihydropyrrolo[3,4-d]imidazol-4(1H)-one], the IC50 in experiment [1] was determined as 0.025 µM; in experiment [2] it was 0.0225 µM; in experiment [3], 0.525 µM. For the same compound, the GI50 in experiment [4] came out at 0.0627 µM; in experiment [5] it was 0.244 µM; in experiment [6], 0.0344 µM. Also, in experiment [4], the “THP-1 TGI” value stood at 0.1355 µM. Besides, the “K-562 TGI” value in experiment [5] is >10 µM. Moreover, in experiment [6], the “MV-4-11 TGI” value amounted to 0.0573 µM.

As to `Cc1cc(N2C(=O)c3nc(C4=CCOCC4)n(C(C)C)c3C2c2ccc(Cl)cc2)nc2c1nnn2C` (stereo not drawn) [Example 160, 6-(4-chlorophenyl)-2-(3,6-dihydro-2H-pyran-4-yl)-5-(3,7-dimethyl-3H-[1,2,3]triazolo[4,5-b]pyridin-5-yl)-1-isopropyl-5,6-dihydropyrrolo[3,4-d]imidazol-4(1H)-one], the IC50 in experiment [1] was < 0.011 µM; in experiment [2], < 0.011 µM; in experiment [3], > 37 µM. Moreover, the figures for the GI50 in experiment [4], in experiment [5] and in experiment [6] were 0.0046 µM, 0.0258 µM and 0.00595 µM, respectively. Besides, the “THP-1 TGI” value in experiment [4] is 0.006383 µM. Moreover, the “K-562 TGI” value in experiment [5] was >7 µM. Moreover, in experiment [6], the “MV-4-11 TGI” value is 0.004973 µM.

Take `Cc1cc(N2C(=O)c3nc(C4=CCOCC4)[nH]c3C2c2ccc(Cl)cc2)nc2c1nnn2C` (stereo not drawn) [Example 162, 6-(4-chlorophenyl)-2-(3,6-dihydro-2H-pyran-4-yl)-5-(3,7-dimethyl-3H-[1,2,3]triazolo[4,5-b]pyridin-5-yl)-5,6-dihydropyrrolo[3,4-d]imidazol-4(1H)-one]: the results for the IC50 in experiment [1], in experiment [2] and in experiment [3] were 0.0115 µM, 0.013 µM and > 37 µM, respectively. Further, the GI50 in experiment [4] was 0.00503 µM; in experiment [5] it was 0.041 µM; in experiment [6], 0.00437 µM. The “THP-1 TGI” value in experiment [4] came to 0.01054 µM. Moreover, the “K-562 TGI” value in experiment [5] was >7 µM. Moreover, the “MV-4-11 TGI” value in experiment [6] was determined as 0.01112 µM.

As to `COc1ncccc1-c1nc2c([nH]1)C(c1ccc(Cl)cc1)N(c1cc(C)c3nnn(C)c3n1)C2=O` (stereo not drawn) [Example 163, 6-(4-chlorophenyl)-5-(3,7-dimethyl-3H-[1,2,3]triazolo[4,5-b]pyridin-5-yl)-2-(2-methoxypyridin-3-yl)-5,6-dihydropyrrolo[3,4-d]imidazol-4(1H)-one], the IC50 in experiment [1] was 0.013 µM; in experiment [2] it was 0.016 µM; in experiment [3] it was > 37 µM. Further, the values for the GI50 in experiment [4], in experiment [5] and in experiment [6] were 0.0158 µM, 0.0533 µM and 0.0155 µM, respectively. Further, in experiment [4], the “THP-1 TGI” value was 0.02575 µM. Also, the “K-562 TGI” value in experiment [5] is >10 µM. The “MV-4-11 TGI” value in experiment [6] was 0.02905 µM.

Regarding `Cc1cc(N2C(=O)c3nc(C4=CCOCC4)n(C(C)C)c3[C@H]2c2ccc(Cl)cc2)nc2c1nnn2C` [Example 164, (R)-6-(4-chlorophenyl)-2-(3,6-dihydro-2H-pyran-4-yl)-5-(3,7-dimethyl-3H-[1,2,3]triazolo[4,5-b]pyridin-5-yl)-1-isopropyl-5,6-dihydropyrrolo[3,4-d]imidazol-4(1H)-one], the IC50 was < 0.011 µM in experiment [1], < 0.011 µM in experiment [2] and 11.2 µM in experiment [3]. The values for the 50% growth inhibitory concentration (GI50) in experiment [4], in experiment [5] and in experiment [6] were 0.00112 µM, 0.0132 µM and 0.000887 µM, respectively. Besides, the “THP-1 TGI” value in experiment [4] came to 0.00243 µM. The “K-562 TGI” value in experiment [5] is >10 µM. For the same compound, the “MV-4-11 TGI” value in experiment [6] was determined as 0.00183 µM.

For the compound `Cc1cc(N2C(=O)c3nc(C4=CCOCC4)[nH]c3[C@H]2c2ccc(Cl)cc2)nc2c1nnn2C` [Example 165, (R)-6-(4-chlorophenyl)-2-(3,6-dihydro-2H-pyran-4-yl)-5-(3,7-dimethyl-3H-[1,2,3]triazolo[4,5-b]pyridin-5-yl)-5,6-dihydropyrrolo[3,4-d]imidazol-4(1H)-one], the IC50 in experiment [1] amounted to 0.019 µM; in experiment [2], 0.018 µM; in experiment [3], 14.8 µM. In addition, the GI50 is 0.004 µM in experiment [4], 0.0479 µM in experiment [5] and 0.00412 µM in experiment [6]. Moreover, the “THP-1 TGI” value in experiment [4] was found to be 0.01567 µM. Moreover, the “K-562 TGI” value in experiment [5] is >10 µM. Further, the “MV-4-11 TGI” value in experiment [6] came to 0.01274 µM.

On to `COc1ncccc1-c1nc2c([nH]1)[C@@H](c1ccc(Cl)cc1)N(c1cc(C)c3nnn(C)c3n1)C2=O` [Example 166, (R)-6-(4-chlorophenyl)-5-(3,7-dimethyl-3H-[1,2,3]triazolo[4,5-b]pyridin-5-yl)-2-(2-methoxypyridin-3-yl)-5,6-dihydropyrrolo[3,4-d]imidazol-4(1H)-one], for which the IC50 in experiment [1] stood at 0.013 µM; in experiment [2], 0.012 µM; in experiment [3] it was 33.1 µM. Further, the concentration for 50% growth inhibition (GI50) in experiment [4] turned out to be 0.00754 µM; in experiment [5], 0.0846 µM; in experiment [6] it was 0.00543 µM. Further, the “THP-1 TGI” value in experiment [4] worked out at 0.01128 µM. Moreover, the “K-562 TGI” value in experiment [5] is >10 µM. In addition, the “MV-4-11 TGI” value in experiment [6] stood at 0.00815 µM.

As to `Cc1cc(N2C(=O)c3nc(C4CCOC4)n(C(C)C)c3[C@H]2c2ccc(Cl)cc2)cc2c1nnn2C` (stereo partly drawn) [Example 172, (6R)-6-(4-chlorophenyl)-5-(1,4-dimethyl-1H-benzo[d][1,2,3]triazol-6-yl)-1-isopropyl-2-(tetrahydrofuran-3-yl)-5,6-dihydropyrrolo[3,4-d]imidazol-4(1H)-one], the IC50 in experiment [1] is 0.013 µM; in experiment [2] it was 0.017 µM; in experiment [3], 0.98 µM. Further, the figures for the 50% growth inhibitory concentration (GI50) in experiment [4], in experiment [5] and in experiment [6] were 0.00628 µM, 0.0196 µM and 0.00522 µM, respectively. Further, in experiment [4], the “THP-1 TGI” value amounted to 0.01226 µM. For the same compound, the “K-562 TGI” value in experiment [5] is >10 µM. In addition, the “MV-4-11 TGI” value in experiment [6] came to 0.01033 µM.

The IC50 is the midpoint of a concentration-inhibition curve. As a reminder, the GI50 is the concentration giving 50% growth inhibition.

The values are drawn from patent publication US9890166B2, “Imidazopyrrolidine derivatives and their use in the treatment of disease” (NOVARTIS AG, priority 2013, dated 2018).
